Data as given in patent US10912850B2, “18F-FNDP for pet imaging of soluble epoxide hydrolase (sEH)” (THE JOHNS HOPKINS UNIVERSITY, priority 2016, dated 2021).
“And” between values parts separate entries of the source, which are not always exact repeats. Identical values can stand only once. Like-named read-outs stand apart in the source and are kept apart here. Blank lines part the entries; values can stand above or below the molecule they belong to.

Legend:
[1] = Molecular properties (log P); type: physicochemical
[2] = tested on: sEH; type: in vivo, mice (sEH-KO, C57BL/6); conditions: for Regional uptake, baseline: C57BL6 control mice, 60 min post-injection
Experimental: All animals were sacrificed at 60 min after radiotracer injection.

[3] = Radiometabolite HPLC analysis of baboon arterial plasma; type: in vivo, Papio anubis (baboon); conditions: 90 min post-injection
Experimental: Baboon arterial blood samples were collected at very short intervals (<5 s) initially and gradually at prolonged intervals throughout the PET study for determination of plasma radioactivity. […] Med. Biol., 2000). […] The effluent from the capture column, containing only highly polar components, flowed through a dual BGO detector (Bioscan, Washington, D.C.). The solvent was then switched to a mixture of 60% acetonitrile/40% 0.1 M aqueous ammonium formate pH=2.7 (2 mL/min) to elute the radiolabeled components bound to the capture column onto the analytical column (Gemini C18, 4.6×254 mm, Phenomenex, Torrance, Calif.).

[4] = Baseline regional brain biodistribution of 18F-FNDP in CD-1 mice; type: in vivo; conditions: for Regional distribution in CD-1 mouse brain (mean % ID/g tissue ± SD): n=3
Experimental: Baseline study in CD1 mice. […] The brains were removed and dissected on ice. Striatum, cortex, hippocampus, hypothalamus, cerebellum and the rest of brain were weighed and their radioactivity content was determined in a γ-counter LKB/Wallac 1283 CompuGamma CS (Perkin Elmer, Bridgeport, Conn.). Aliquots of the injectate were prepared as standards and their radioactivity content was determined along with the tissue samples. The percent of injected dose per gram of tissue (% ID/g tissue) was calculated.

[5] = target: T1, sEH (Mus musculus, UniProt P34914); test: Blocking of 18F-FNDP binding in CD-1 mice with nor-fluoro-FNDP (dose escalation); type: in vivo
T1 construct: from tissue; host or cells: brain of living CD-1 mice (striatum, cortex, hippocampus, cerebellum)
T1 sequence (P34914 1-554): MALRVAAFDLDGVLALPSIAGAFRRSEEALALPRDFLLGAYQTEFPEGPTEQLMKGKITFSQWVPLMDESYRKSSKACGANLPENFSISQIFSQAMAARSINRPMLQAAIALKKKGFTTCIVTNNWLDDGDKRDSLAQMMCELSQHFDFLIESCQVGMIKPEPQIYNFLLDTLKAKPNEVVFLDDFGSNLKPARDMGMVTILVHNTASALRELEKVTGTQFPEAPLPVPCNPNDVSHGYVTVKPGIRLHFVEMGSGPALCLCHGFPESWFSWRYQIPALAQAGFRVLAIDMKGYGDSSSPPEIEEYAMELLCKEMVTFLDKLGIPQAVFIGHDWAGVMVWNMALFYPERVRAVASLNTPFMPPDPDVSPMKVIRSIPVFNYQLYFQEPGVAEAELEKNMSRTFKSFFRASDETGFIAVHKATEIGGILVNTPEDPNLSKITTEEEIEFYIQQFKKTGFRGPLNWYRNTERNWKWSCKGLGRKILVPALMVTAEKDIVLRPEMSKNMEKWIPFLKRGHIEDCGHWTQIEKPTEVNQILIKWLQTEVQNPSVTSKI
Experimental: Ninety minutes after administration of the radiotracer the animals were sacrificed by cervical dislocation, brain tissues were harvested, and their radioactivity content was determined.

[6] = tested on: sEH; test: Baboon dynamic PET imaging, baseline and blocking (SUV, VT, K1); conditions: for Time of regional TAC peak: post-injection; for Average K1 (rate constant for transfer from arterial plasma to tissue): two-tissue-three-compartment model
Experimental: Dynamic baseline and blocking PET experiments (90 min) were performed on three male baboons (Papio anubis) weighing 23.9, 25.0 and 28.2 kg, using the High Resolution Research Tomograph (HRRT, CPS Innovations, Inc., Knoxville, Tenn.). […] Radiometabolite analysis in baboon arterial blood was performed under the general conditions published previously (Hilton et al., Nucl. Med. Biol., 2000).
PET experiments were performed on a male baboon (Papio anubis) weighing 28.2 kg, using the High Resolution Research Tomograph (HRRT, CPS Innovations, Inc., Knoxville, Tenn.). The animal underwent one baseline PET scan and one blocking scan 3 weeks later. The animal was fasted for 12 h prior to each PET study. Anesthesia was induced with intramuscular ketamine (7.5-10 mg/kg) and maintained with a continuous intravenous infusion of propofol at 0.3-0.4 mg/kg/min throughout the PET experiment. One venous catheter was inserted for the radioligand injection, and one arterial catheter inserted to obtain arterial blood samples. Measurement of the arterial plasma input function was conducted through collection of 43 blood samples over the course of the 90 min dynamic PET scan. The baboon was also intubated to facilitate respiration, and circulatory volume was maintained by constant infusion of isotonic saline. Physiological vital signs including heart rate, blood pressure, electrocardiogram, and oxygen saturation were monitored continuously throughout the study.
The animal was positioned in the PET scanner with the head immobilized with a thermoplastic mask. A 6 min transmission scan was acquired using a rotating [^137Cs] cesium source for attenuation correction.
The 90 min PET list mode data were binned into 22 frames (three 20 s, two 30 s, two 1 min, three 2 min, eight 5 min, and four 10 min frames). The data were then reconstructed using the iterative ordered subsets expectation maximization (OS-EM) algorithm (with six iterations and 16 subsets), with correction for radioactive decay, dead time, attenuation, scatter and randoms. The attenuation maps were generated from 6 min transmission scans performed with a [^137Cs] cesium point source prior to the emission scans. The reconstructed image space consisted of cubic voxels, each 1.22 mm^3 in size, and spanning dimensions of 31 cm×31 cm (transaxially) and 25 cm (axially).
The software package PMOD (v3.3, PMOD Technologies Ltd, Zurich, Switzerland) was used for the following image processing and subsequent kinetic analysis steps. The previously acquired brain MRI T1-weighted images for the baboon were co-registered to the reconstructed dynamic PET images acquired in this study. Through manually matching the co-registered MRI to the INIA19 Template and NeuroMaps Atlas for Primate Brain Image Parcellation and Spatial Normalization (Rohlfing et al., Frontiers in neuroinformatics, 2012), 13 representative baboon brain VOIs were defined, including frontal and temporal gyms, thalamus, hippocampus, caudate, putamen, amygdala, globus pallidus, insula, hypothalamus, cerebellum, corpus callosum, and white matter. Brain regional TACs were then generated for both baseline and blocking PET scans using those VOIs.
Following the consensus nomenclature for in vivo imaging of reversibly binding radioligands (Innis et al., J. Cereb. Blood Flow Metab., 2007), due to the lack of a non-displaceable reference region, the main outcome measure was regional distribution volume (VT), defined as the ratio of the concentration of the radioligand in regional brain tissue to that in plasma at equilibrium. Regional VT is proportional to the receptor density in the defined VOL VT was calculated using the Logan graphical method for each VOI (Logan et al., J. Cereb. Blood Flow Metab., 1990).

log P [1]: 2.9
SMILES: O=C(NCCC(c1ccccc1)c1ccccc1)c1ccc(F)nc1 [FNDP, N-(3,3-diphenylpropyl)-6-fluoronicotinamide]

SMILES: O=C(NCCC(c1ccccc1)c1ccccc1)c1ccc([18F])nc1 [^18F-FNDP, N-(3,3-diphenylpropyl)-6-^18F-fluoronicotinamide]
Regional uptake, baseline ([2]; cerebellum): 0.5 % ID/g
Regional uptake, baseline ([2]; striatum, hippocampus and cortex): about 1 % ID/g
Brain uptake, blocking experiment ([2]; C57BL6 mice, all regions studied, nor-fluoro-FNDP 1 mg/kg s.c., 60 min): ~0.2 % ID/g tissue
Blocking effect ([2]; C57BL/6 controls, nor-fluoro-FNDP 1 mg/kg s.c.): about 80%
Reduction of uptake in sEH-KO mice as compared with controls ([2]; baseline, 60 min after radiotracer injection, C57BL/6 controls): about 90%
Radiotracer uptake in sEH-KO mice ([2]; sEH-KO mice): Minimal
Regional brain uptake, baseline ([2]; sEH-KO mice, 60 min): 0.11-0.12 % ID/g
Reduction of uptake in blockade study ([2]; sEH-KO mice, blocker nor-fluoro-FNDP): negligible
Regional brain uptake, blocking ([2]; sEH-KO mice, nor-fluoro-FNDP 1 mg/kg s.c., 60 min): 0.10-0.11 % ID/g
Brain uptake in sEH-KO mice lower than in controls ([2]; sEH-KO vs controls): 10 fold
Parent compound remaining in plasma [3]: 20%
Peak brain uptake ([4]; CD-1 mice, at peak uptake): 5.2 percent injected dose per gram of tissue
Regional distribution in CD-1 mouse brain (mean % ID/g tissue ± SD) ([4]; Cerebellum, 5 min): 2.75 ± 0.11 % ID/g tissue
Regional distribution in CD-1 mouse brain (mean % ID/g tissue ± SD) ([4]; Cerebellum, 15 min): 1.31 ± 1.01 % ID/g tissue
Regional distribution in CD-1 mouse brain (mean % ID/g tissue ± SD) ([4]; Cerebellum, 30 min): 1.09 ± 0.16 % ID/g tissue
Regional distribution in CD-1 mouse brain (mean % ID/g tissue ± SD) ([4]; Cerebellum, 60 min): 0.52 ± 0.07 % ID/g tissue
Regional distribution in CD-1 mouse brain (mean % ID/g tissue ± SD) ([4]; Cerebellum, 90 min): 0.29 ± 0.04 % ID/g tissue
Regional distribution in CD-1 mouse brain (mean % ID/g tissue ± SD) ([4]; Cortex, 5 min): 4.69 ± 0.21 % ID/g tissue
Regional distribution in CD-1 mouse brain (mean % ID/g tissue ± SD) ([4]; Cortex, 15 min): 2.92 ± 0.36 % ID/g tissue
Regional distribution in CD-1 mouse brain (mean % ID/g tissue ± SD) ([4]; Cortex, 30 min): 2.07 ± 0.05 % ID/g tissue
Regional distribution in CD-1 mouse brain (mean % ID/g tissue ± SD) ([4]; Cortex, 60 min): 0.87 ± 0.14 % ID/g tissue
Regional distribution in CD-1 mouse brain (mean % ID/g tissue ± SD) ([4]; Cortex, 90 min): 0.45 ± 0.05 % ID/g tissue
Regional distribution in CD-1 mouse brain (mean % ID/g tissue ± SD) ([4]; Hippocampus, 5 min): 3.29 ± 0.54 % ID/g tissue
Regional distribution in CD-1 mouse brain (mean % ID/g tissue ± SD) ([4]; Hippocampus, 15 min): 2.51 ± 0.34 % ID/g tissue
Regional distribution in CD-1 mouse brain (mean % ID/g tissue ± SD) ([4]; Hippocampus, 30 min): 1.76 ± 0.15 % ID/g tissue
Regional distribution in CD-1 mouse brain (mean % ID/g tissue ± SD) ([4]; Hippocampus, 60 min): 0.81 ± 0.15 % ID/g tissue
Regional distribution in CD-1 mouse brain (mean % ID/g tissue ± SD) ([4]; Hippocampus, 90 min): 0.43 ± 0.06 % ID/g tissue
Regional distribution in CD-1 mouse brain (mean % ID/g tissue ± SD) ([4]; Hypothalamus, 5 min): 2.59 ± 0.18 % ID/g tissue
Regional distribution in CD-1 mouse brain (mean % ID/g tissue ± SD) ([4]; Hypothalamus, 15 min): 1.66 ± 0.28 % ID/g tissue
Regional distribution in CD-1 mouse brain (mean % ID/g tissue ± SD) ([4]; Hypothalamus, 30 min): 1.04 ± 0.08 % ID/g tissue
Regional distribution in CD-1 mouse brain (mean % ID/g tissue ± SD) ([4]; Hypothalamus, 60 min): 0.51 ± 0.07 % ID/g tissue
Regional distribution in CD-1 mouse brain (mean % ID/g tissue ± SD) ([4]; Hypothalamus, 90 min): 0.31 ± 0.05 % ID/g tissue
Regional distribution in CD-1 mouse brain (mean % ID/g tissue ± SD) ([4]; Rest of brain, 5 min): 3.53 ± 0.11 % ID/g tissue
Regional distribution in CD-1 mouse brain (mean % ID/g tissue ± SD) ([4]; Rest of brain, 15 min): 2.37 ± 0.34 % ID/g tissue
Regional distribution in CD-1 mouse brain (mean % ID/g tissue ± SD) ([4]; Rest of brain, 30 min): 1.64 ± 0.06 % ID/g tissue
Regional distribution in CD-1 mouse brain (mean % ID/g tissue ± SD) ([4]; Rest of brain, 60 min): 0.71 ± 0.10 % ID/g tissue
Regional distribution in CD-1 mouse brain (mean % ID/g tissue ± SD) ([4]; Rest of brain, 90 min): 0.38 ± 0.04 % ID/g tissue
Regional distribution in CD-1 mouse brain (mean % ID/g tissue ± SD) ([4]; Striatum, 5 min): 5.24 ± 0.45 % ID/g tissue
Regional distribution in CD-1 mouse brain (mean % ID/g tissue ± SD) ([4]; Striatum, 15 min): 3.29 ± 0.36 % ID/g tissue
Regional distribution in CD-1 mouse brain (mean % ID/g tissue ± SD) ([4]; Striatum, 30 min): 2.32 ± 0.15 % ID/g tissue
Regional distribution in CD-1 mouse brain (mean % ID/g tissue ± SD) ([4]; Striatum, 60 min): 1.07 ± 0.14 % ID/g tissue
Regional distribution in CD-1 mouse brain (mean % ID/g tissue ± SD) ([4]; Striatum, 90 min): 0.54 ± 0.07 % ID/g tissue
Peak brain uptake value ([4]; mouse brain, peak (5 min post-injection)): 5.2 % ID/g and 5 % ID/g
Residual (non-specific) binding at the high dose of the blocker ([5]; CD-1 mouse brain, blocker nor-fluoro-FNDP): 10%
Blockade of uptake ([5]; mice, all brain regions, pre-treatment with sEH inhibitor): 80-90%
Degree of specificity of cerebral sEH labeling ([5]; two strains of control mice (CD-1 and C57BL/6)): 80-90%
Blockade of brain uptake ([6]; baboon PET, all regions): 95%
Time of regional TAC peak ([6]; baboon blocking study (nor-fluoro-FNDP 2 mg/kg s.c.)): about 1 min
Average SUV at the end of the scan ([6]; baboon blocking study, end of 90 min scan): 0.18 g/mL
Brain SUV ([6]; baboon brain): 4
Time of regional TAC peak ([6]; baboon brain, baseline scan): about 5 min
Peak SUV of the entire brain ([6]; baboon, baseline scan): 3.2
SUV of the entire brain at the end of the scan ([6]; baboon, baseline, end of 90 min dynamic scan): 1.8
Average K1 (rate constant for transfer from arterial plasma to tissue) ([6]; baboon, baseline): 0.18 ml/cm^3/min
Average K1 (rate constant for transfer from arterial plasma to tissue) ([6]; baboon, blocking): 0.14 ml/cm^3/min
Reduction of VT, blocking vs baseline ([6]; baboon, cerebellum): 93%
Average SUV at end of blocking scan as percent of the baseline value ([6]; baboon, end of 90 min scan): 10%
Reduction of VT, blocking vs baseline ([6]; baboon, insula and amygdala): 95%
Specificity of sEH radiolabeling ([6]; both animal species (mouse and baboon)): up to 95%
